Measurements published in the supplement of paper PMC10307832.

Experiments:
Assay in all cases: relative viability (nuclei count vs DMSO), 5 days (fraction); higher = more cells survive
[1] = compound: C1=CC=C2C(=C1)C=CC(=C2SSC3=C(C=CC4=CC=CC=C43)O)O [IPA-3] + N=C(N)NC(=N)NCCc1ccccc1 [Phenformin] (partner 250 µM)
In short: (§1)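 Relative viability was taken as the ratio of nuclei in treated wells to nuclei in vehicle wells. Lung cancer cell lines in 1536-well plates received compounds by pin tool one day after seeding, either one drug alone or a fixed anchor-drug dose plus five library-drug doses (not always all listed) in √10 steps. Nuclei were counted on 4× images after 5 days of treatment, and values are medians of duplicate plates.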

[2] = compound: C1=CC=C2C(=C1)C=CC(=C2SSC3=C(C=CC4=CC=CC=C43)O)O [IPA-3] + C[C@@H](Oc1cc(-c2cnn(C3CCNCC3)c2)cnc1N)c1c(Cl)ccc(F)c1Cl [Crizotinib] (partner 1 µM)
In short: as §1

[3] = compound: Cc1ccc(-n2nc(C(C)(C)C)cc2NC(=O)Nc2ccc(OCCN3CCOCC3)c3ccccc23)cc1 [Doramapimod] + Cc1nc(Nc2ncc(C(=O)Nc3c(C)cccc3Cl)s2)cc(N2CCN(CCO)CC2)n1 [Dasatinib] (partner 0.075 µM)
In short: as §1

[4] = compound: Cn1c(Nc2ccc(C(F)(F)F)cc2)nc2cc(Oc3ccnc(-c4ncc(C(F)(F)F)[nH]4)c3)ccc21 [RAF265] + CC(C)C[C@H](NC(=O)[C@H](Cc1ccccc1)NC(=O)c1cnccn1)B(O)O [Bortezomib] (partner 0.002 µM)
In short: as §1

Cell Line | relative viability ([1]; first compound 0.2 µM) | relative viability ([1]; first compound 0.6325 µM) | relative viability ([1]; first compound 2 µM) | relative viability ([1]; first compound 6.325 µM) | relative viability ([1]; first compound 20 µM) | relative viability ([2]; first compound 0.2 µM) | relative viability ([2]; first compound 0.6325 µM) | relative viability ([2]; first compound 2 µM) | relative viability ([2]; first compound 6.325 µM) | relative viability ([2]; first compound 20 µM) | relative viability ([3]; first compound 0.02 µM) | relative viability ([3]; first compound 0.06325 µM) | relative viability ([3]; first compound 0.2 µM) | relative viability ([3]; first compound 0.6325 µM) | relative viability ([3]; first compound 2 µM) | relative viability ([4]; first compound 0.01 µM) | relative viability ([4]; first compound 0.03162 µM) | relative viability ([4]; first compound 0.1 µM) | relative viability ([4]; first compound 0.3162 µM) | relative viability ([4]; first compound 1 µM)
201T | 0.452 | 0.454 | 0.484 | 0.461 | 0.469 | 1.04 | 1.01 | 1.05 | 1.03 | 1.04 | 0.611 | 0.571 | 0.49 | 0.598 | 0.517 | 1.08 | 1.1 | 1.07 | 1.11 | 1.1
A549 | 0.197 |  | 0.142 | 0.189 | 0.298 | 0.886 | 0.76 | 0.745 | 0.819 | 0.89 |  |  |  |  |  |  |  |  |  | 
A-427 | 0.395 | 0.295 | 0.288 | 0.253 | 0.447 | 1.11 | 0.775 | 0.896 | 0.91 | 1.12 | 0.728 | 0.768 | 0.733 |  | 0.672 | 0.98 | 0.867 | 1 | 1.1 | 0.494
ABC-1 | 0.258 | 0.247 | 0.236 | 0.258 | 0.235 | 1.12 | 1.17 |  | 0.981 | 1.06 | 0.572 | 0.581 | 0.539 | 0.534 | 0.498 | 0.308 | 0.321 | 0.278 | 0.284 | 0.303
BEN | 0.268 | 0.291 | 0.243 | 0.243 | 0.388 | 1.01 | 0.905 | 0.98 | 0.788 | 0.961 | 0.34 | 0.349 | 0.317 | 0.345 | 0.273 | 0.993 | 0.878 | 0.777 | 0.85 | 0.547
CAL-12T | 0.763 | 0.512 | 0.529 | 0.529 | 0.694 | 0.479 | 0.6 | 0.699 | 0.516 | 0.69 | 0.521 | 0.371 | 0.306 | 0.44 | 0.348 | 1.06 | 0.834 | 0.836 | 0.476 | 0.64
COR-L23 | 0.532 | 0.426 | 0.471 | 0.431 | 0.232 | 0.695 | 0.699 | 0.682 | 0.604 | 0.601 | 0.527 | 0.554 | 0.5 | 0.545 | 0.513 | 1.05 | 0.87 | 0.964 | 0.706 | 0.511
COR-L 105 | 0.634 | 0.445 | 0.49 | 0.418 | 0.55 | 0.954 | 0.757 | 0.704 | 0.788 | 0.964 | 0.316 | 0.305 | 0.302 | 0.376 | 0.367 | 0.902 | 0.771 | 0.647 | 0.442 | 0.56
Calu-6 |  |  |  |  |  | 1.06 | 0.75 | 0.81 | 0.795 | 0.966 |  |  |  |  |  | 0.919 | 0.819 | 0.834 | 0.473 | 0.368
ChaGo-K-1 | 0.614 | 0.494 | 0.494 | 0.494 | 0.605 | 1.32 | 1.08 | 1.17 | 1.09 | 1.23 | 0.51 | 0.583 | 0.526 | 0.566 | 0.586 | 0.92 | 1.08 | 1.12 | 1.03 | 0.662
EBC-1 |  |  |  |  |  | 0.188 | 0.186 | 0.168 | 0.195 | 0.193 |  |  |  |  |  | 0.48 | 0.464 | 0.521 | 0.482 | 0.489
EKVX | 0.267 | 0.235 | 0.238 | 0.235 | 0.266 | 1.24 | 0.965 | 0.951 | 0.799 | 1.22 | 0.544 | 0.49 | 0.561 | 0.584 | 0.491 | 0.99 | 0.995 | 1.04 | 0.513 | 0.763
EMC-BAC-2 | 0.642 | 0.467 | 0.541 | 0.576 | 0.594 | 0.79 | 0.769 | 0.771 | 0.698 | 0.829 | 0.451 | 0.279 | 0.297 | 0.419 | 0.283 | 1.07 | 1 | 1.08 | 1.05 | 0.351
EPLC-272H | 0.306 | 0.27 | 0.346 | 0.405 | 0.397 | 1.16 | 0.808 | 0.995 | 0.912 | 1.23 | 0.438 | 0.326 | 0.435 | 0.479 | 0.332 | 0.973 | 0.956 | 0.818 | 0.808 | 0.392
H3255 | 0.443 | 0.368 | 0.343 | 0.386 | 0.408 | 1.11 | 0.86 | 0.962 | 0.749 | 1.03 | 0.296 | 0.56 | 0.414 | 0.314 | 0.351 | 0.901 | 0.776 | 1.06 |  | 0.696
HARA | 0.653 | 0.427 | 0.432 | 0.442 | 0.564 | 1.21 | 1.22 | 1.09 | 1.14 | 1.24 | 0.194 | 0.274 | 0.277 |  | 0.199 | 1.12 | 1.1 | 1.1 | 0.809 | 0.801
HCC-15 | 0.634 | 0.343 | 0.469 | 0.477 | 0.583 | 0.812 | 0.855 | 0.825 | 0.776 | 0.886 | 0.56 | 0.598 | 0.634 |  | 0.595 | 0.95 | 0.96 | 0.985 | 0.941 | 0.792

Cell Line | relative viability ([1]; first compound 0.2 µM) | relative viability ([1]; first compound 0.6325 µM) | relative viability ([1]; first compound 2 µM) | relative viability ([1]; first compound 6.325 µM) | relative viability ([1]; first compound 20 µM) | relative viability ([2]; first compound 0.2 µM) | relative viability ([2]; first compound 0.6325 µM) | relative viability ([2]; first compound 2 µM) | relative viability ([2]; first compound 6.325 µM) | relative viability ([2]; first compound 20 µM) | relative viability ([3]; first compound 0.02 µM) | relative viability ([3]; first compound 0.06325 µM) | relative viability ([3]; first compound 0.2 µM) | relative viability ([3]; first compound 0.6325 µM) | relative viability ([3]; first compound 2 µM) | relative viability ([4]; first compound 0.01 µM) | relative viability ([4]; first compound 0.03162 µM) | relative viability ([4]; first compound 0.1 µM) | relative viability ([4]; first compound 0.3162 µM) | relative viability ([4]; first compound 1 µM)
HCC-44 | 0.232 | 0.245 | 0.176 | 0.234 | 0.184 | 0.859 | 0.735 | 0.917 | 0.804 | 0.807 |  |  |  |  |  | 0.862 | 0.818 | 0.9 | 0.957 | 0.873
HCC-78 | 0.768 | 0.64 | 0.728 | 0.801 | 0.692 | 0.341 | 0.341 | 0.365 | 0.322 | 0.399 | 0.359 | 0.431 | 0.364 | 0.382 | 0.304 | 0.535 | 0.506 | 0.52 | 0.956 | 0.423
HCC-366 | 0.715 | 0.584 | 0.636 | 0.567 | 0.752 | 0.697 | 0.564 | 0.617 | 0.521 | 0.618 | 0.605 | 0.549 | 0.548 | 0.548 | 0.458 | 1.11 | 1.02 | 1.06 | 1 | 0.985
IA-LM |  |  |  |  |  | 1.25 | 0.683 | 0.904 | 0.553 | 0.555 |  |  |  |  |  | 0.77 |  | 0.805 | 0.593 | 0.548
LK-2 | 0.408 | 0.456 | 0.421 | 0.43 | 0.438 | 0.202 | 0.229 | 0.227 | 0.22 | 0.193 | 0.241 | 0.278 | 0.202 | 0.213 | 0.22 |  |  |  |  | 
NCI-H358 | 0.433 | 0.355 | 0.306 | 0.359 | 0.278 | 0.454 | 0.663 | 0.611 | 0.595 | 0.574 | 0.164 | 0.156 | 0.162 | 0.204 | 0.171 |  |  |  |  | 
NCI-H522 | 0.648 | 0.657 | 0.582 | 0.697 | 0.76 |  |  |  |  |  | 0.715 | 0.851 | 0.863 | 0.785 | 0.812 |  |  |  |  | 
NCI-H1299 |  |  |  |  |  | 0.974 | 0.935 | 0.96 | 0.928 | 0.961 |  |  |  |  |  | 1.04 | 1.02 | 1.05 | 0.969 | 0.741
NCI-H1395 | 0.46 | 0.431 | 0.446 | 0.479 | 0.469 |  |  |  |  |  | 0.413 | 0.433 | 0.401 | 0.546 | 0.363 |  |  |  |  | 
NCI-H1623 | 0.605 | 0.583 | 0.618 | 0.563 | 0.655 |  |  |  |  |  | 0.534 | 0.522 | 0.497 | 0.495 | 0.521 |  |  |  |  | 
NCI-H1703 |  |  |  |  |  | 0.819 | 0.593 | 0.757 | 0.669 | 0.469 |  |  |  |  |  | 0.253 | 0.289 | 0.36 | 0.295 | 0.216
NCI-H1793 | 0.509 | 0.317 | 0.334 | 0.458 | 0.545 |  |  |  |  |  | 0.335 | 0.379 | 0.368 | 0.36 | 0.344 |  |  |  |  | 
NCI-H1944 | 0.212 | 0.186 | 0.189 | 0.219 | 0.176 | 1.21 | 0.995 | 1.11 | 1.17 | 1.07 | 0.213 | 0.231 | 0.193 | 0.232 | 0.216 |  |  |  |  | 
NCI-H2170 | 0.438 | 0.358 | 0.457 | 0.356 | 0.481 | 1.24 | 1.11 | 1.18 | 1.16 | 1.33 | 0.614 | 0.616 | 0.7 | 0.896 | 0.594 |  |  |  |  | 
NCI-H2342 | 0.629 | 0.619 | 0.568 | 0.825 | 0.731 |  |  |  |  |  | 0.277 | 0.309 | 0.319 | 0.333 | 0.278 |  |  |  |  | 
SK-MES-1 | 0.635 | 0.625 | 0.667 | 0.573 | 0.533 | 0.981 | 1 | 1.13 | 0.94 | 0.87 | 0.374 | 0.406 | 0.413 | 0.41 | 0.33 |  |  |  |  | 
SW 900 | 0.783 | 0.575 | 0.556 | 0.784 | 0.677 |  |  |  |  |  | 0.654 | 0.548 | 0.714 | 0.813 | 0.553 |  |  |  |  | 
